Results on one molecule are retold here after patent publication US7495028B2, “R-bambuterol, its preparation and therapeutic uses” (priority 2002, dated 2009).

The conditions of series [1]: in plasma; cited from earlier work.
Series [2] deals with sensitized conscious guinea pigs exposed to aerosol ovalbumin. Kind of series: Protection against allergic bronchospasm in ovalbumin-sensitized conscious guinea pigs. The format is in vivo, guinea pig. Here is the method:
Test method: Guinea pigs (Dunkin-Hartley strain, 200±10 g, equal sexes) were used in this study. Ovalbumin (5%) solution was injected into guinea pigs subcutaneously and intraperitoneally to sensitize the animals. Male and female sensitized animals were kept separately for 14 days, and food and water was available ad libitum. On day 14 after sensitization, animals were randomized into groups of 8 each. The animals were treated orally with saline (control) or various concentrations of R-bambuterol or racemic bambuterol in saline. Four hours after the treatment, each animal was restrained in a glass chamber. After stabilization the animal was exposed to an aerosol of ovalbumin generated by a nebulizer from a 5% solution of ovalbumine at a rate of 0.5 ml/min for a period of 15 seconds. The animal was removed from the chamber, and the behavior of the animal was monitored. The number of the sensitized animals which collapsed were counted, and the latency time, i.e. the time from the exposure to aerosol ovalbumin to the collapse of the animal, was recorded.

Series [3] is described as follows: Serum concentration of active parent form (terbutaline) after oral dosing. The series is classed as in vivo, guinea pig. As to conditions: guinea pigs, 8 mg/kg oral, four hours later. The protocol: Based on the pharmacokinetic studies of racemic bambuterol hydrochloride, about 50% of absorbed bambuterol is hydrolyzed to terbutaline, the active-parent form, in plasma. There is little cholinesterase in the lung strip preparation, so neither the test compound nor racemic bambuterol has significant effects. In order to test the compound of invention in vitro on isolated guinea-pig lung tissue, R-bambuterol and racemic bambuterol were administrated orally to guinea pigs at a dose of 8 mg/kg. Four hours later, blood was collected from the animals, and the serum containing the active parent form of the test compounds were prepared. The concentration of the active parent form, i.e. terbutaline, in serum measured using BPLC, was 64-70 ng/ml in the animal treated with R-bambuterol and 62-69 ng/ml in the animal treated with racemic bambuterol. The serum containing the active form of test compound was then added into the organ in a certain volume, so that the final concentration of the active forms of test compounds was 0.25 ng/ml in the organ bath. Concentration-response relationships were obtained using a cumulative dose schedule by adding the same volume of the serum into the organ bath. The test using the serum containing the active form of racemic bambuterol was done in parallel with the test compound in the same manner as described above.

For `CN(C)C(=O)Oc1cc(OC(=O)N(C)C)cc(C(O)CNC(C)(C)C)c1` (stereo not drawn) [RS-bambuterol, bambuterol], in series [1], the “Fraction of absorbed bambuterol hydrolyzed to terbutaline” value is given as “about 50%”. Also, the figures for the “% collapsed” value in series [2] (1 mg/kg oral), in series [2] (4 mg/kg oral) and in series [2] (8 mg/kg oral) were 75%, 38% and 25%, respectively. In addition, the Latency time in series [2] (1 mg/kg oral) was determined as 156 ± 38 s; in series [2] (4 mg/kg oral), 174 ± 21 s; in series [2] (8 mg/kg oral, listed as Racemic bambuterol), 316 ± 36 s; in series [2] (8 mg/kg oral, listed as racemic bambuterol), 316 ± 36 s. The Number collapsed in series [2] (1 mg/kg oral (n = 8), four hours before aerosol ovalbumin) stood at 6; in series [2] (4 mg/kg oral (n = 8)), 3; in series [2] (8 mg/kg oral (n = 8)) it was 2. Also, the “Concentration of the active parent form, terbutaline, in serum” value in series [3] lay in the range of 62 to 69 ng/mL.
